Like-named read-outs stand apart in the source and are kept apart here.
Legend:
[1] = cited from earlier work
[2] = Surfactant pKaH by acid-base titration
Excerpt: Surfactant pKaH values were either collected from literature sources or measured according to the method described herein. The surfactant (1 g) was mixed with deionized water (60 g). Next, preparation steps were taken to convert all of the surfactants to their respective salt forms. Surfactants which are already in fully neutralized salt form (e.g., Geropon CG 3S, Geropon LG 3S, and Aminosyl SLG) were titrated “as is” (i.e., as received from the supplier). Surfactants in acid form were mixed with enough aqueous 0.5 M KOH (potassium hydroxide) to increase the solution pH to a pH of 10. Sodium lauroyl lactylate (Capmul S12L, 1 g) was mixed with 1.4 g TERGITOL™15-S-40 (70%), followed by enough aqueous 0.5 M KOH (potassium hydroxide) to increase the solution pH to a pH of 10. After the respective preparation steps above, the surfactant solutions were titrated with 0.5 M HCl to pH 2 while recording the pH and the amount of 0.5 M HCl added using a titrator, Mettler Toledo T70.

[3] = literature data (footnotes of Table II)

| Compound | pKaH [1, 3] | also measured |
| --- | --- | --- |
| CCCCCCCCCC(=O)O [Capric acid (C10), Capric acid] | 7.1-7.3 |  |
| CCCCCCCCCCCC(=O)O [Lauric acid (C12), Lauric acid] | 7.5 |  |
| CCCCCCCCCCCCCC(=O)O [Myristic acid (C14), Myristic acid] | 8.1-8.2 |  |
| CCCCCCCCCCCC(=O)N(C)CC(=O)O [N-Lauroyl sarcosine] |  | pKaH [2]: 5.3 |
| CCCCCCCC/C=C\CCCCCCCC(=O)O [Oleic acid (C18:1 cis-9), Oleic acid] | 9.85 |  |
| CCCCCCCCCCCCCCCC(=O)O [Palmitic acid (C16), Palmitic acid] | 8.6-8.8 |  |
| CCCCCCCCCCCC(=O)OC(C)C(=O)OC(C)C(=O)[O-].[Na+] (stereo not shown) [Sodium lauroyl lactylate] |  | pKaH ([2]; titrated with 0.5 M HCl, pH at mid-point to the equivalence point): 5.25 |
| CCCCCCCCCCCCCCCCCC(=O)O [Stearic acid (C18), Stearic acid] | 10.15 |  |
| CCCCCCCC(=O)O [n-octanoic acid] | 6.3-6.5 |  |
| sodium dodecylbenzenesulfonate |  | pKaH ([1]; stated in the discussion, no source given): less than 2.6 |

— US20240425630A1, “POLYMER DISPERSION COMPOSITION” (Dow Global Technologies LLC, priority 2021, published 2024)
